In the CheMixHub viscosity set:
Values joined by “and” are separate entries in the source; they are usually repeats but may differ in a detail not shown here. Equal values may be shown once.

Experiments:
[1] = xn = mol fraction of the nth substance listed; conditions: 101.33 kPa

CCOP(=O)(OCC)OCC
Conditions | viscosity [mPa·s]
298.15 K, 101.3 kPa | 1.503

CCc1ccccc1
Conditions | viscosity
298 K, 101 kPa | 0.6295 mPa·s
298.15 K, 101 kPa | 0.6076 mPa·s and 0.631 mPa·s
298.15 K, 101.3 kPa | 0.657 mPa·s
298.15 K, 101.33 kPa | 0.625 mPa·s
303 K, 101.33 kPa | 0.574 mPa·s
303.15 K, 100 kPa | 0.592 mPa·s
303.15 K, 101 kPa | 0.5916 mPa·s
303.15 K, 101.33 kPa | 0.584 mPa·s
308.15 K, 100 kPa | 0.56 mPa·s
308.15 K, 101.33 kPa | 0.5797 mPa·s and 0.56 mPa·s
313 K, 101.33 kPa | 0.513 mPa·s
313.15 K, 100 kPa | 0.53 mPa·s
313.15 K, 101.33 kPa | 0.531 mPa·s
318.15 K, 100 kPa | 0.503 mPa·s
318.15 K, 101.33 kPa | 0.502 mPa·s and 0.5038 mPa·s
323 K, 101.33 kPa | 0.464 mPa·s
323.15 K, 100 kPa | 0.478 mPa·s
323.15 K, 101.33 kPa | 0.474 mPa·s

COC(C)(C)C
viscosity
Conditions | 293.15 K | 298.15 K | 303.15 K | 308.15 K | 313.15 K | 318.15 K | 323.15 K
100 kPa | 0.345 mPa·s | 0.32 mPa·s | 0.297 mPa·s | 0.275 mPa·s | 0.252 mPa·s | 0.231 mPa·s | 0.206 mPa·s
101 kPa | 0.387 mPa·s and 0.371 mPa·s | 0.374 mPa·s and 0.3558 mPa·s and 0.348 mPa·s | – | 0.341 mPa·s and 0.3245 mPa·s | 0.321 mPa·s | 0.297 mPa·s | 0.276 mPa·s
101.33 kPa | 0.3861 mPa·s and 0.3861 mPa·s | 0.3687 mPa·s and 0.3687 mPa·s and 0.3353 mPa·s | 0.3163 mPa·s | – | 0.2876 mPa·s | – | –

COCCOCCOCCOCCOC
viscosity
Conditions | 293.15 K | 298 K | 298.15 K | 303.15 K | 308.15 K | 318.15 K | 323.15 K
101 kPa | 3.795 mPa·s | 3.295 mPa·s | – | 2.955 mPa·s | 2.646 mPa·s and 2.643 mPa·s and 2.524 mPa·s | 2.168 mPa·s and 2.11 mPa·s | 1.975 mPa·s
101.33 kPa | – | – | 3.394 mPa·s | – | – | – | –

Clc1ccccc1
Conditions | viscosity
293.15 K, 101 kPa | 0.768 mPa·s and 0.793 mPa·s and 0.8062 mPa·s
293.15 K, 101.33 kPa | 0.806 mPa·s and 0.8522 mPa·s
293.45 K, 101.33 kPa | 0.8265 mPa·s
298.15 K, 101.3 kPa | 0.773 mPa·s
298.15 K, 101.33 kPa | 0.8131 mPa·s and 0.755 mPa·s
299 K, 101 kPa | 1.182 mPa·s
303.15 K, 101.3 kPa | 0.725 mPa·s
303.55 K, 101.33 kPa | 0.743 mPa·s
308.15 K, 101.3 kPa | 0.666 mPa·s and 0.683 mPa·s
312.75 K, 101.33 kPa | 0.6695 mPa·s
313.15 K, 101.33 kPa | 0.6469 mPa·s and 0.639 mPa·s
314.25 K, 101.33 kPa | 0.643 mPa·s
318.15 K, 101 kPa | 0.5629 mPa·s and 0.5924 mPa·s and 0.601 mPa·s
318.15 K, 101.3 kPa | 0.615 mPa·s
318.15 K, 101.33 kPa | 0.607 mPa·s
322.35 K, 101.33 kPa | 0.6069 mPa·s
323.15 K, 101 kPa | 0.5724 mPa·s and 0.5701 mPa·s and 0.566 mPa·s
323.15 K, 101.33 kPa | 0.5724 mPa·s

N#CCCCCC#N
Conditions | viscosity [mPa·s]
303.15 K, 101.33 kPa | 4.905

OC1CCCC1
100 kPa
Conditions | viscosity
293.15 K | 12.9 mPa·s
298.15 K | 10.41 mPa·s
303.15 K | 8.2 mPa·s and 8.088 mPa·s
308.15 K | 6.85 mPa·s and 6.528 mPa·s
318.15 K | 4.742 mPa·s
318.16 K | 4.87 mPa·s

OCCCCCO
101 kPa
Conditions | viscosity [mPa·s]
313.15 K | 45.63
318.15 K | 36.87
323.15 K | 29.8

Clc1cccc2ccccc12 + c1ccccc1
viscosity [mPa·s], [1]
Conditions | x1 = 0.0989 | x1 = 0.2022 | x1 = 0.3275 | x1 = 0.3981 | x1 = 0.5035 | x1 = 0.5982 | x1 = 0.7022 | x1 = 0.7973 | x1 = 0.8976
298.15 K | 0.655 | 0.792 | 0.96 | 1.078 | 1.294 | 1.475 | 1.731 | 2.022 | 2.38
303.15 K | 0.609 | 0.727 | 0.903 | 0.994 | 1.188 | 1.349 | 1.586 | 1.833 | 2.126
308.15 K | 0.571 | 0.679 | 0.843 | 0.922 | 1.098 | 1.242 | 1.452 | 1.669 | 1.928
